For 23 compounds, EC50 results are on record in BindingDB's records for doi:10.1021/acsmedchemlett.8b00054 (Shandong University, 2018).

Test [1] relates to wild-type HIV1 3B reverse transcriptase (virus infecting MT4 cells). The experiment in a line: Inhibition of wild-type HIV1 3B reverse transcriptase infected in human MT4 cells assessed as protection against virus-induced cytotoxicity by MTT assay. (In general: Tetrazolium assays rely on reduction of a dye to a coloured formazan, in cell work by metabolically active cells.)
The test system of test [2] is HIV1 RES056 reverse transcriptase K103N/Y181C double mutant (virus infecting MT4 cells). The experiment in a line: Inhibition of HIV1 RES056 reverse transcriptase K103N/Y181C double mutant infected in human MT4 cells assessed as protection against virus-induced cytotoxicity by MTT assay.
The nature of test [3]: Inhibition of HIV1 reverse transcriptase K103N mutant infected in human MT4 cells assessed as protection against virus-induced cytotoxicity by MTT assay.
Test [4] in a line: Inhibition of HIV1 reverse transcriptase E138K mutant infected in human MT4 cells assessed as protection against virus-induced cytotoxicity by MTT assay.
The nature of test [5]: Inhibition of HIV1 reverse transcriptase Y181C mutant infected in human MT4 cells assessed as protection against virus-induced cytotoxicity by MTT assay.
Test [6] in a line: Inhibition of HIV1 reverse transcriptase L100I mutant infected in human MT4 cells assessed as protection against virus-induced cytotoxicity by MTT assay.
The nature of test [7]: Inhibition of HIV1 reverse transcriptase Y188L mutant infected in human MT4 cells assessed as protection against virus-induced cytotoxicity by MTT assay.
Test [8] in a line: Inhibition of HIV1 reverse transcriptase F227L/V106A double mutant infected in human MT4 cells assessed as protection against virus-induced cytotoxicity by MTT assay.

Usually EC50 stands for the midpoint of the concentration-response curve. With `Cc1cc(C#N)cc(C)c1Oc1nc(Nc2ccc(C#N)cc2)nc(N)c1Br`, the EC50 in test [1] worked out at 4 nM; in test [2], 34 nM.

On to `Cc1cc(C#N)cc(C)c1Oc1nc(NC2CCN(Cc3cn(S(C)(=O)=O)cn3)CC2)nc2ccsc12`, for which the half-maximal effective concentration (EC50) in test [1] stood at 5.7 nM; in test [2] it was 2700 nM; in test [3], 4.5 nM; in test [4] it was 13 nM.

For the compound `Cc1cc(C#N)cc(C)c1Oc1nc(NC2CCN(Cc3ccc(S(N)(=O)=O)cc3)CC2)nc2ccn(COCc3ccccc3)c12`, the EC50 in test [1] is 9.5 nM; in test [2] it was 484 nM.

As for `Cc1cc(C#N)cc(C)c1Oc1nc(NC2CCN(Cc3ccc(S(C)(=O)=O)cc3)CC2)nc2ccn(COCc3ccccc3)c12`, the values for the EC50 in test [1] and in test [2] were 26 nM and 547 nM, respectively.

On to `Cc1cc(C#N)cc(C)c1Oc1nc(NC2CCN(Cc3ccc(C(N)=O)cc3)CC2)nc2ccn(COCc3ccccc3)c12`, for which the 50% effective concentration (EC50) in test [1] came to 36 nM; in test [2], 567 nM.

Consider `Cc1cc(C#N)cc(C)c1Oc1nc(NC2CCN(Cc3ccco3)CC2)nc2ccsc12`, for which the values for the EC50 in test [1], in test [2] and in test [4] were 3.6 nM, greater than 272000 nM and 8.8 nM, respectively.

`Cc1cc(C#N)cc(C)c1Oc1nc(NC2CCN(Cc3cc(=O)[nH]c(=O)[nH]3)CC2)nc2ccsc12`: the concentration giving a half-maximal response (EC50) in test [1] is 7.2 nM; in test [2], 8970 nM; in test [3] it was 6.1 nM; in test [4], 7 nM.

In the case of `Cc1cc(C#N)cc(C)c1Oc1nc(NC2CCN(Cc3ccc(S(N)(=O)=O)cc3)CC2)nc2cc[nH]c12`, the EC50 worked out at 2.4 nM in test [1]; 85 nM in test [2]; 1 nM in test [3]; 4 nM in test [4]; 4.8 nM in test [5]; 4.2 nM in test [6]. Moreover, the concentration for a half-maximal effect (EC50) in test [7] is 7.2 nM; in test [8], 18 nM.

For the compound `Cc1cc(C#N)cc(C)c1Oc1nc(NC2CCN(Cc3ccc(C(N)=O)cc3)CC2)nc2cc[nH]c12`, the concentration giving a half-maximal response (EC50) in test [1] worked out at 5.7 nM; in test [2], 113 nM.

With `Cc1cc(C#N)cc(C)c1Oc1nc(NC2CCN(Cc3n[nH]c(=O)n3C)CC2)nc2ccsc12`, the EC50 in test [1] came out at 14 nM; in test [2], 17100 nM.

Regarding `Cc1cc(C#N)cc(C)c1Oc1nc(NC2CCN(Cc3c[nH]cn3)CC2)nc2ccsc12`, the EC50 in test [1] worked out at 5.5 nM; in test [2] it was 1170 nM; in test [3], 6 nM; in test [4], 12 nM.

Turning to `Cc1cc(C#N)cc(C)c1Nc1nc(NC2CCN(Cc3ccc(S(N)(=O)=O)cc3)CC2)nc2ccsc12`, the EC50 in test [1] stood at 1.4 nM; in test [2], 31 nM.

As to `Cc1cc(C#Cc2cccnc2)cc(C)c1Oc1nc(NC2CCN(Cc3ccc(S(N)(=O)=O)cc3)CC2)nc2ccsc12`, the concentration giving a half-maximal response (EC50) stood at 41 nM in test [1] and 153 nM in test [2].

Regarding `Cc1cc(C#Cc2ccccn2)cc(C)c1Oc1nc(NC2CCN(Cc3ccc(S(N)(=O)=O)cc3)CC2)nc2ccsc12`, the half-maximal effective concentration (EC50) in test [1] was 9 nM; in test [2], 888 nM.

`Cc1cc(C#N)cc(C)c1Oc1nc(NC2CCN(Cc3ccc(C(N)=O)cc3)CC2)nc2ccn(S(=O)(=O)c3ccccc3)c12`: the values for the EC50 in test [1] and in test [2] were 17 nM and 2290 nM, respectively.

Consider `Cc1cc(C#N)cc(C)c1Oc1nc(NC2CCN(Cc3ccc(N4CCCC4)cc3)CC2)nc2ccsc12`, for which the concentration for a half-maximal effect (EC50) in test [1] was 33 nM; in test [2], greater than 4360 nM.

For the compound `Cc1cc(C#Cc2ccncc2)cc(C)c1Oc1nc(NC2CCN(Cc3ccc(S(N)(=O)=O)cc3)CC2)nc2ccsc12`, the EC50 in test [1] stood at 34 nM; in test [2] it was 223 nM.

In the case of `Cc1cc(C#N)cc(C)c1Oc1nc(NC2CCN(Cc3ccc(S(C)(=O)=O)cc3)CC2)nc2ccn(S(=O)(=O)c3ccccc3)c12`, the 50% effective concentration (EC50) in test [1] was 31 nM; in test [2], 187 nM.

`Cc1cc(C#N)cc(C)c1Oc1nc(NC2CCN(Cc3ccc(S(N)(=O)=O)cc3)CC2)nc2ccn(S(=O)(=O)c3ccccc3)c12`: the 50% effective concentration (EC50) is 8.9 nM in test [1] and 110 nM in test [2].

As for `Cc1cc(/C=C/C#N)cc(C)c1Nc1nc(NC2CCN(Cc3ccc(S(N)(=O)=O)cc3)CC2)nc2ccsc12`, the values for the EC50 in test [1] and in test [2] were 1.2 nM and 5 nM, respectively.

For the compound `Cc1cc(C#N)cc(C)c1Oc1nc(NC2CCN(Cc3ccc(S(C)(=O)=O)cc3)CC2)nc2cc[nH]c12`, the concentration for a half-maximal effect (EC50) in test [1] amounted to 5.9 nM; in test [2], 116 nM.

On to `Cc1cn([C@H]2C[C@H](N=[N+]=[N-])[C@@H](CO)O2)c(=O)[nH]c1=O` [1-((2R,4S,5S)-4-Azido-5-hydroxymethyl-tetrahydro-furan-2-yl)-5-methyl-1H-pyrimidine-2,4-dione], for which the EC50 in test [1] was 7 nM; in test [2], 17 nM.

As to `Cc1ccnc2c1NC(=O)c1cccnc1N2C1CC1` [BI-RG-587], the results for the EC50 in test [1] and in test [2] were 124 nM and greater than 15000 nM, respectively.
